Measurements from article PMC4912613, “A broad analysis of resistance development in the malaria parasite” (Nature Communications, 2016).
Like-named read-outs stand apart in the source and are kept apart here.

Columns and labels:
[1] = system: P. berghei exoerythrocytic forms; assay: Liver-stage P. berghei hepatocyte invasion and development assay (luminescence, HepG2); type: cell-based, Plasmodium berghei; conditions: Plasmodium berghei, HepG2, text values; read-out: Liver stage EC50 (PfLuc EC50)
Source text: (§1) As drugs that eliminate multiple stages of the parasite lifecycle will be critical components in global efforts to eliminate malaria, we were interested in knowing whether the compounds in our study had additional activities against either the liver and/or transmission stages of the parasite lifecycle. To determine this, we first evaluated the compounds in additional phenotypic assays. The first assay was a P. berghei hepatocyte invasion and development assay, which predicts causal prophylactic activity. Hepatocyte toxicity was additionally tested to identify false-positive activity in the liver stage due to host-cell toxicity. Assays were executed in duplicate using a 12-point EC50 curve at starting concentrations of 5 μM or 50 μM (Supplementary Table 1).
(§2) Liver-stage activity was determined by pretreating hepatic human cells (HepG2) for 2 h with compound in 1,536-well plates infected with freshly dissected P. berghei sporozoites. After 48 h of incubation, the viability of P. berghei exoerythrocytic forms was measured by luminescence reaction light output using BrightGlo (Promega). Varying levels of compound concentration were used (5 μM or 50 μM) due to the stock concentration supplied.

[2] = system: Stage 5 gametocytes from P. falciparum NF54; assay: Late-stage (stage V) gametocyte survival assay, MitoTracker; type: cell-based, Plasmodium falciparum; conditions: Plasmodium falciparum; P. falciparum NF54, 72 h; read-out: Stage 5 Gametocyte EC50
Experimental: The second assay was a late-stage (stage V) gametocyte survival assay, which predicts transmission-blocking activity. […] Positive and negative control compounds included puromycin (0.61±0.11 μM) and atovaquone (> 12.50 μM), respectively.
To test sexual-stage activity, compounds were tested against late-stage gametocytes using a MitoTracker fluorescent-based assay. Specifically, synchronized stage V gametocytes were incubated with compound for 72 h. MitoTracker Red CMXRos (Life Technologies) was added to each well (final concentration: 500 nM) together with saponin to lyse the RBCs. Each plate was then imaged with an Operetta High Content Imaging System (Perkin Elmer) for fluorescence (590–640 nm). Varying levels of compound concentration were used (1.25 μM or 12.5 μM) due to the stock concentration supplied.
The gametocytocidal activity was measured using high-content image analysis software (Harmony, Perkin Elmer). The readout was based on number of metabolically active gametocytes per well.

Hepatocyte toxicity = type: cell-based, human; conditions: human; read-out: HepG2 EC50 (hepatocyte toxicity)
Source text: as §1, §2

P. falciparum [3] = system: P. falciparum; set-up: method as in PMID 26542470; conditions: known rate of action; cited from earlier work
[4] = system: MMV026596-selected cultures (parental line 3D7); assay: EC50 on cultures selected with MMV026596; type: cell-based, Plasmodium falciparum; conditions: hypersensitivity of cultures after 100 days of MMV026596 selection
Source text: While we found an overall lack of pre-existing resistance, analysing the onset of resistance was critical, as compounds resulting in rapid resistance are not ideal for clinical development. We therefore sought to create drug-resistant parasites using a variety of different selection methods. We implemented either a high-dose method or a ramp-up/pulse method for our in vitro selections. Two of the 50 compounds—MMV028895 and MMV665824—were removed from the selection study during experimentation. […] Out of the remaining 48 compounds, resistant parasites were obtained for 23 (Supplementary Data 1). As each selection was performed in triplicate with three independent cultures, we succeeded in generating a total of 66 resistant cultures. Parasites resistant to MMV026596 were not obtained despite 100 days of selection, but the cultures acquired hypersensitivity to mefloquine with a 10-fold reduction in EC50 compared with its parental line, 3D7. For the remaining 24 compounds, acquisition of resistant parasites was unsuccessful despite numerous attempts over an extensive period of time.

W2 = assay: Cross-resistance EC50 assay, W2 parent; type: cell-based, Plasmodium falciparum; conditions: Plasmodium falciparum, 48 h, read-out: W2F6 (PARENT) Average EC50
Source text: (§3) Multidrug resistance alleles, including mutations in P. falciparum chloroquine resistance transporter (pfcrt) and P. falciparum multi-drug resistance transporter 1 (pfmdr1) are very common in field isolates. Therefore, we sought to assess the degree to which pre-existing resistance alleles would contribute to a loss of potency for this diverse collection of small molecule compounds. Fifteen clones derived from three main parent lines were chosen to maximize diversity in mutated pathways and genetic backgrounds, thus representing the variety of resistance seen in the field: 3D7 (ref. [23]), W2 (ref. [24]) or Dd2 (ref. [25]). The 3D7 line originates from the clone of a Netherlands clinical isolate strain[23][26] and is generally considered to be drug sensitive, though it does convey resistance to sulfadoxine. Conversely, W2 (ref. [24], [27]) and Dd2 (ref. [25]) are multi-drug-resistant lines originating from the Indochina III/CDC isolate, which contain point mutations in pfcrt as well as amplifications in pfmdr1 and GTP cyclohydrolase.
(§4) To evaluate potential overlapping activity against known antimalarial drug targets, we performed dose-response studies with each compound against our assembled set of drug-resistant lines and their corresponding parents, in an asexual blood stage proliferation assay (Table 1). Comparisons were made to the drug-sensitive strain 3D7 when a parent was unavailable (TM90C2A, W2 and Dd2). As laboratories conducted EC50 assays with different strains and protocols, all comparisons were made between assays from the same laboratory and under the same assay conditions. Compounds displaying >5-fold EC50 shifts relative to the parent or sensitive strain were flagged as having potentially non-novel targets. Average fold shifts per strain ranged from 0.82 to 2.34, with a median of 1.23 indicating there was not common resistance to any one resistant clone. No resistance patterns were observed when classifying the compounds based on chemical structure, but this was not surprising given the diversity of compounds chosen. On the other hand, given that these confirmed compounds were derived from larger unconfirmed hit lists to which some filtration criteria may have been applied (for example, elimination of obvious dihydrofolate reductase inhibitors[32]), some[10][11][12][13] pre-existing bias may exist in the set.
(§5) The 48-h assay was carried out in a 96-well format following standard methods using the ^3H-hypoxanthine incorporation assay. The raw EC50 values corresponding to this assay can be found in Supplementary Data 3. Briefly, this assay relies on the parasite incorporation of labelled hypoxanthine that is proportional to P. falciparum growth. A culture of parasitized RBCs (0.5% parasitemia with a percentage of ring stage higher than 70% of total parasitemia, 2.0% haematocrit) in RPMI-1640, […] and 5 μM hypoxanthine was exposed to drug serial dilutions. Plates were incubated for 24 h at 37 °C, 5% CO2, 5% O2 and 90% N2. After 24 h of incubation, ^3H-hypoxanthine was added and plates were incubated for an additional 24-h period. After that, parasites were harvested on a glass fibre filter using a TOMTEC Cell Harvester 96. Filters were dried and melt-on scintillator sheets were used to determine the incorporation of ^3H-hypoxanthine. Radioactivity was measured using a microbeta counter. Data were normalized using the incorporation of the positive (parasitized RBCs without drug) and negative (same culture with artesunate at 2 μM) controls. All assays were conducted in triplicate using three independently grown cultures, and EC50 values were determined using the XLfit add-in module for Excel (version 2.3.1) from Grafit (version 5.3.1.3), where parameter h is the assay hill slope, x is the compound concentration and y is the inhibition of growth effect. The XLfit equation is: […]
(§6) Alternatively, a SYBR Green-based proliferation approach was used for the 72-h assay, as previously described. […]

[5] = system: TM90C2A (DHFR, folate pathway; compared with 3D7); assay: Cross-resistance EC50 assay, TM90C2A; type: cell-based; conditions: Plasmodium falciparum, 48 h, read-out: TM90C2A (3D7 Parent) Average EC50
Source text: as §4, §5
EC50 values for each strain were compared with those of the corresponding parent strain to determine fold-shift changes and identify resistance. To minimize the cause variance between assays, all comparisons were conducted between strains assayed under identical conditions. A one-way ANOVA followed by a Dunnet's post-test was conducted in GraphPad Prism to identify significant changes between the parent and resistant strain.

3D7 = assay: Cross-resistance EC50 assay, 3D7 parent / sensitive strain; type: cell-based; conditions: Plasmodium falciparum, hypoxanthine 48-hour assay, synchronized parasites, 96-well format
Source text: as §3, §4, §5, §6

P. falciparum [6] = assay: Rate of killing (parasite viability) assay; type: cell-based, Plasmodium falciparum; conditions: profile compared with chloroquine, pyrimethamine, atovaquone; 48 h treatment
Experimental: To identify whether selection success could be predicted by compound speed of action, and to gain a greater insight into the potential mechanisms of action, assays were performed to test the killing rate (Supplementary Data 1)[33]. To quantify the killing rate, viability time-course profiles for each compound were compared with antimalarials known to have fast (chloroquine), moderate (pyrimethamine) or slow (atovaquone) rate of action. These rates were then compared with other compound characteristics, including cross-resistance profile, selection success, potency and structural characteristics to identify any possible trends. […] One compound's rate of killing, MMV666080, was unidentifiable due to compound availability. No correlation was seen between compound structure and speed of action. Additionally, there was no correlation found between killing rate and compound potency against 3D7, nor between potency and selection success (Supplementary Fig. 2).
Rate of killing was determined for each compound following a previously described methodology, which uses the invasion of fresh erythrocytes as surrogate of parasite viability. Briefly, parasites were treated with compounds for 48 h. Compound was washed out and fresh-labelled erythrocytes added to the treated parasites. Double stained erythrocytes (RBC label plus parasite DNA label) were quantified and per cent of survival determined.

COc1ccc(C[C@H](N)C(=O)N[C@H]2[C@@H](O)[C@H](n3cnc4c(N(C)C)ncnc43)O[C@@H]2CO)cc1 [puromycin, reference compound]
EC50 [1]: 0.0327 ± 0.0297 µM | EC50 [2]: 0.61 ± 0.11 µM | EC50 (Hepatocyte toxicity): 0.254 ± 0.0366 µM

O=C1C(O)=C([C@H]2CC[C@H](c3ccc(Cl)cc3)CC2)C(=O)c2ccccc21 [atovaquone, reference compound]
EC50 [1]: 0.000419 ± 4.4e-05 µM | EC50 [2]: > 12.5 µM | EC50 (Hepatocyte toxicity): 7.72 ± 1.37 µM | rate of action of comparator antimalarials (P. falciparum [3]): slow

OC(c1cc(C(F)(F)F)nc2c(C(F)(F)F)cccc12)C1CCCCN1 (stereo not drawn) [mefloquine]
reduction in EC50 compared with parental line 3D7 [4]: 10 fold

CCN(CC)CCCC(C)Nc1ccnc2cc(Cl)ccc12 (stereo not drawn) [chloroquine]
rate of action of comparator antimalarials (P. falciparum [3]): fast

CCc1nc(N)nc(N)c1-c1ccc(Cl)cc1 [pyrimethamine]
rate of action of comparator antimalarials (P. falciparum [3]): moderate

COc1ccc(NC(=O)N2CCCCN3[C@H](CO)[C@H](c4ccc(C#Cc5ccccc5)cc4)[C@@H]3C2)cc1 [BRD3444]
EC50 (W2): 0.031 µM | EC50 [5]: 0.037 µM | EC50 (3D7; strain 3D7 (parent), read-out: 3D7 (PARENT) Average EC50): 0.045 µM | EC50 (3D7; strain 3D7-C9-WT (parent of PfATP4 Mut3), read-out: 3D7-C9-WT (PARENT) Average EC50): 0.035 µM

Cn1c(C(=O)c2cccc3ccccc23)nc2ccccc21 [MMV665824]
Killing Rate (P. falciparum [6]): ATQ (slow)
